Key:
Format in all cases: in vivo
[1] = system: adult engorged female ticks (Rhipicephalus microplus); test: Rhipicephalus (Boophilus) microplus injection test; settings: 168 h, egg deposition after 7 days, read-out: activity (efficacy: infertile eggs); for pest or weed control at 4 pg: application rate 4 pg/animal; for pest or weed control at 0.02 mg: application rate 20 μg/animal
Procedure, shortened: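 Abdominal injection, 1 μL compound/DMSO, n=5 engorged adult females; climate-chamber incubation. Readout d7: fertile egg laying; doubtful eggs held to hatch (~42 d). % efficacy = infertile eggs (100% all infertile).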

[2] = system: adult cat fleas (Ctenocephalides felis); test: Ctenocephalides felis in-vitro contact test, adult cat flea; settings: application rate 5 μg/cm^2 (=500 g/ha), after 48 hours, read-out: activity (efficacy: fleas dead or moribund)
Method: Ctenocephalides felis—In-Vitro Contact Tests Adult Cat Flea
9 mg compound is solved in 1 mL acetone and diluted with acetone to the desired concentration. 250 μL of the test solution is filled in 25 mL glass test tubes and homogeneously distributed on the inner walls by rotation and tilting on a shaking device (2 h at 30 rpm). With a compound concentration of 900 ppm, an inner surface of 44.7 cm^2 and a homogeneous distribution, a dose of […] is achieved.
After the solvent has evaporated, each test tube is filled with 5-10 adult cat fleas (Ctenocephalides felis), closed with a perforated lid and incubated in a lying position at room temperature and relative humidity. After 48 hours efficacy is determined. The fleas are patted on the ground of the tubes and are incubated on a heating plate at 45-50° C. for at most 5 minutes. Immotile or uncoordinated moving fleas, which are not able to escape the heat by climbing upwards, are marked as dead or moribund.
An efficacy of 100% means all fleas are dead or moribund; 0% means no fleas are dead or moribund.

[3] = system: adult unfed cat fleas (Ctenocephalides felis); test: Ctenocephalides felis oral test; settings: 48 h, read-out: activity (mortality)
Procedure, shortened: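 About 20 adult unfed fleas fed through parafilm on cattle blood containing compound (DMSO stock diluted in blood), blood held at 37 °C and fleas at room temperature. Mortality (%) scored after 2 days.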

[4] = system: adult brown dog ticks (Rhipicephalus sanguineus); test: Rhipicephalus sanguineus in-vitro contact test, adult brown dog ticks; settings: after 48 hours, read-out: activity (efficacy: ticks dead or moribund); for pest or weed control at 100 g/ha: application rate 1 pg/cm^2 (=100 g/ha); for pest or weed control at 5 µg/cm2, 500 g/ha: application rate 5 μg/cm^2 (=500 g/ha)
Procedure, shortened: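 Contact exposure: dried compound film inside glass tubes, dose 5 μg/cm^2 at 900 ppm, 5-10 adults per tube at room temperature. Scored at 48 h via a heat-escape test on a 45-50° C plate for up to 5 min.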

[5] = system: larvae of the banded cucumber beetle (Diabrotica balteata); test: Diabrotica balteata spray test; settings: 168 h, after 7 days, read-out: activity (efficacy: seedlings grown); for pest or weed control at 100 g/ha: application rate 100 g/ha (=32 pg/well); for pest or weed control at 500 g/ha: application rate 500 g/ha (=160 pg/well)
Procedure, shortened: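 Read-out is % efficacy at day 7, 0% meaning no seedling growth and 100% growth equal to uninfested untreated controls. Test solutions (acetone/DMF concentrate diluted with water carrying 1000 ppm emulsifier) were sprayed onto 1-day-germinated wheat seeds, 5 per well, before infestation with 10-20 larvae.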

[6] = system: green peach aphid (Myzus persicae); test: Myzus persicae oral test; settings: 120 h, application rate 4 ppm, after 5 days
Procedure, shortened: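 Aphids of mixed population ingest the compound preparation by sucking through a parafilm sheet stretched over wells holding test solution plus IPL41 insect medium (33%+15% sugar). Kill rate in percent is determined five days later.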

[7] = system: larvae of the southern green stink bug (Nezara viridula); test: Nezara viridula spray test; settings: 96 h, after 4 days; for mortality at 100 g/ha: application rate 100 g/ha; for mortality at 500 g/ha: application rate 500 g/ha
Procedure, shortened: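 Larva-infested barley (Hordeum vulgare) plants received a spray of test solution prepared from an acetone/DMF concentrate diluted in emulsifier-containing water (1000 ppm). Percent kill read 4 days later; 0% means no stink bugs dead.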

[8] = system: fall armyworm larvae (Spodoptera frugiperda); test: Spodoptera frugiperda spray test; settings: 168 h, read-out: activity (mortality)
Procedure, shortened: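 Larvae of fall armyworm placed on dried maize leaf sections previously sprayed with emulsified compound (acetone/DMF solvent, water with 1000 ppm emulsifier). Percent of caterpillars killed recorded on day 7, 0–100% scale.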

[9] = system: Rhipicephalus microplus larvae (strain Parkhurst, resistant against synthetic pyrethroids); test: Rhipicephalus (Boophilus) microplus in-vitro contact test, larval cattle tick; settings: after 48 hours, read-out: activity (efficacy: larvae dead or moribund); for pest or weed control at 100 g/ha: application rate 1 pg/cm^2 (=100 g/ha); for pest or weed control at 500 g/ha: application rate 5 pg/cm^2 (=500 g/ha)
Procedure, shortened: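 Larvae (20-50 per tube) exposed to dry compound film on glass tube walls, 5 μg/cm^2 at 900 ppm, applied from acetone. After 48 h at 27° C./85% RH, tubes tapped and negative geotaxis scored; efficacy as percent dead or moribund larvae.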

[10] = system: green peach aphid (Myzus persicae); test: Myzus persicae spray test; settings: 120 h, after 5 days; for mortality at 100 g/ha: application rate 100 g/ha; for mortality at 500 g/ha: application rate 500 g/ha
Method: Myzus persicae—Spray Test
Solvent: 78.0 parts by weight acetone • 1.5 parts by weight dimethylformamide
Emulsifier: alkylarylpolyglycol ether
To produce a suitable preparation of active compound, 1 part by weight of active compound is mixed with the stated amount of solvents and is diluted with water, containing an emulsifier concentration of 1000 ppm, to the desired concentration. Further test concentrations are prepared by dilution with emulsifier containing water.
Chinese cabbage (Brassica pekinensis) leaf disks infected with all instars of the green peach aphid (Myzus persicae), are sprayed with a preparation of the active ingredient of the desired concentration.
After 5 days mortality in % is determined. 100% means all aphids have been killed and 0% means none of the aphids have been killed.

[11] = system: Aedes aegypti strain MONHEIM; test: Aedes aegypti test (AEDSAE surface treatment & contact assay); settings: 24 hours after contact, read-out: efficacy (mortality)
Procedure, shortened: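 Percent mortality was read 24 h after adult MONHEIM mosquitoes were held for 30 min on a tile treated with compound. Compound applied from acetone solution (2 mg/ml) containing 2000 ppm rapeseed oil methyl ester, after evaporation.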

Structure (SMILES) | pest or weed control at 4 pg [1] | pest or weed control at 0.02 mg [1] | pest or weed control at 5 µg/cm2 [2] | mortality at 100 ppm [3] | pest or weed control at 100 g/ha [4] | pest or weed control at 100 g/ha [5] | pest or weed control at 500 g/ha [5] | mortality at 4 ppm [6] | mortality at 100 g/ha [7] | mortality at 500 g/ha [7] | mortality at 500 g/ha [8] | pest or weed control at 100 g/ha [9] | pest or weed control at 500 g/ha [9] | pest or weed control at 5 µg/cm2, 500 g/ha [4] | mortality at 100 g/ha [10] | mortality at 500 g/ha [10] | mortality at 100 g/ha [8] | mortality at 4 mg/m2 ([11]; surface concentration 4 mg/m^2, exposure 30 minutes) | mortality at 20 mg/m2 ([11]; surface concentration 20 mg/m^2, exposure 30 minutes)
C[C@H](NC(=O)c1cc(C#N)cc(S(C)(=O)=O)c1)c1ncnn1-c1ccccn1 [II-31] | 100% | 100% | 100% | 100% | 100% | 100% | 100% | 100% | 100% | 100% | 83% |  |  |  |  |  |  |  | 
C[C@H](NC(=O)c1cc(Cl)cc(S(C)(=O)=O)c1)c1nc(C2CC2)nn1-c1ncc(Cl)cn1 [I-61] |  |  | 100% |  | 80% | 100% |  | 100% | 100% | 100% |  | 100% | 100% | 100% | 90% | 90% | 100% |  | 
Cc1nc([C@H](C)NC(=O)c2cc(C(F)F)cc(C3CC3)c2)n(-c2ccc(C#N)cn2)n1 [II-61] | 100% |  | 100% |  | 100% | 100% |  | 100% | 100% |  |  | 100% | 100% | 100% | 90% |  | 83% |  | 
CCS(=O)(=O)c1cc(Cl)cc(C(=O)N[C@@H](C)c2nc(C3CC3)nn2-c2ncc(Cl)cn2)c1 [I-24] | 100% | 100% | 80% | 90% | 100% |  |  | 100% | 100% |  |  | 100% | 100% | 80% |  |  | 100% |  | 
COc1nc([C@H](C)NC(=O)c2cc(Cl)cc(S(C)(=O)=O)c2)n(-c2ccc(Cl)cn2)n1 [I-45] | 100% |  | 100% |  |  | 100% |  | 100% |  |  |  | 90% | 90% |  | 90% |  | 100% |  | 
C[C@H](NC(=O)c1cc(Cl)cc(S(C)(=O)=O)c1)c1ncnn1-c1ncc(I)cn1 [II-44] | 100% | 100% | 100% | 100% |  |  |  | 100% | 100% |  |  | 100% | 100% |  |  |  | 100% |  | 
C[C@H](NC(=O)c1cc(Cl)cc(C2(C#N)CC2)c1)c1ncnn1-c1cc(C#N)ccn1 [II-4] | 100% | 100% | 80% | 100% |  | 100% | 100% | 100% | 100% | 100% |  |  |  |  |  | 90% | 83% | 80 to 100% | 80 to 100%
CC(NC(=O)c1cc(Cl)cc(S(C)(=O)=O)c1)c1nc(C(F)F)nn1-c1ncccn1 (stereo not shown) [I-5] | 100% | 100% | 80% | 100% |  | 100% | 100% | 100% | 90% | 90% |  |  |  |  |  |  |  |  | 
Cc1nc([C@H](C)NC(=O)c2cc(Cl)cc(S(=O)(=O)C(F)(F)F)c2)n(-c2ccc(C#N)cn2)n1 [II-15, 3-chloro-N-{(1S)-1-[1-(5-cyanopyridin-2-yl)-3-methyl-1H-1,2,4-triazol-5-yl]ethyl}-5-[(trifluoromethyl)sulfonyl]benzamide] | 100% | 100% | 90% | 100% |  | 100% | 100% | 100% |  | 100% | 100% | 100% | 100% |  |  | 90% | 100% |  | 
